Earlier results, collected in patent publication US20220409533A1, “LAG TIME REDUCTION/ICE SPRAY” (LTS LOHMANN THERAPIE-SYSTEME AG, priority 2019, published 2022).

Settings: transdermal application

## CN1CCCC1c1cccnc1 (stereo not shown) [nicotine]
  resorption delay time (lag time): 6 h
